Test results: US12077503B2, “Substituted cyclic amides and their use as herbicides” (FMC CORPORATION, priority 2015, dated 2024)
Read-outs that look alike come from different tables or passages of the source.

Legend:
Format in all cases: in vivo
[1] = test system: Kochia (Kochia scoparia); test: Test A preemergence; conditions: Bassia scoparia, pre-emergence, 240 h, preemergence, read-out: Kochia plant response rating; for pest or weed control at 125 g/ha: 125 g ai/ha; for pest or weed control at 500 g/ha: 500 g ai/ha
In short: (§1)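 Seeds sprayed preemergence with a directed soil spray, or plants at 2 to 10 cm height and one- to two-leaf stage sprayed postemergence, with test chemicals in a non-phytotoxic solvent mixture containing surfactant, in loam soil–sand blend. Injury rated visually against untreated controls after about 10 d in greenhouse, 0 (no effect) to 100 (complete control).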

[2] = test system: giant foxtail (Setaria faberii); test: Test A preemergence; conditions: Setaria faberi, pre-emergence, 240 h, preemergence, read-out: Foxtail, Giant plant response rating; for pest or weed control at 125 g/ha: 125 g ai/ha; for pest or weed control at 500 g/ha: 500 g ai/ha
In short: as §1

[3] = test system: ragweed (common ragweed, Ambrosia elatior); test: Test A preemergence; conditions: Ambrosia artemisiifolia, pre-emergence, 240 h, preemergence, read-out: Ragweed plant response rating; for pest or weed control at 500 g/ha: 500 g ai/ha
In short: as §1

[4] = test system: ryegrass, Italian (Italian ryegrass, Lolium multiflorum); test: Test A preemergence; conditions: Lolium multiflorum, pre-emergence, 240 h, preemergence, read-out: Ryegrass, Italian plant response rating; for pest or weed control at 500 g/ha: 500 g ai/ha
In short: as §1

[5] = test system: pigweed (Amaranthus retroflexus); test: Test A preemergence; conditions: Amaranthus retroflexus, pre-emergence, 240 h, preemergence, read-out: Pigweed plant response rating; for pest or weed control at 125 g/ha: 125 g ai/ha; for pest or weed control at 500 g/ha: 500 g ai/ha
[6] = test system: barnyardgrass (Echinochloa crus-galli); test: Test A preemergence; conditions: Echinochloa crus-galli, pre-emergence, 240 h, preemergence, read-out: Barnyardgrass plant response rating; for pest or weed control at 125 g/ha: 125 g ai/ha; for pest or weed control at 500 g/ha: 500 g ai/ha
In short: as §1

[7] = test system: giant foxtail (Setaria faberii); test: Test A postemergence; conditions: Setaria faberi, post-emergence, 240 h; for pest or weed control at 125 g/ha: 125 g ai/ha
In short: as §1

[8] = test system: ryegrass, Italian (Italian ryegrass, Lolium multiflorum); test: Test A postemergence; conditions: Lolium multiflorum, post-emergence, 240 h; for pest or weed control at 125 g/ha: 125 g ai/ha
In short: as §1

[9] = test system: pigweed (Amaranthus retroflexus); test: Test A postemergence; conditions: Amaranthus retroflexus, post-emergence, 240 h; for pest or weed control at 125 g/ha: 125 g ai/ha
In short: as §1

[10] = test system: wheat (Triticum aestivum); test: Test A postemergence; conditions: Triticum aestivum, post-emergence, 240 h, Postemergence, read-out: Plant response rating, Wheat; for plant injury at 125 g/ha: 125 g ai/ha, visual injury after approximately 10 d, 0 to 100 scale where 0 is no effect and 100 is complete control
In short: as §1

[11] = test system: blackgrass (Alopecurus myosuroides); test: Test A postemergence; conditions: Alopecurus myosuroides, post-emergence, 240 h; for pest or weed control at 125 g/ha: 125 g ai/ha
In short: as §1

[12] = test system: sedge, umbrella (small-flower umbrella sedge, Cyperus difformis); test: Test B flooded paddy test; conditions: Cyperus difformis, 250 g ai/ha, Flood, read-out: Sedge, Umbrella plant response rating
In short: (§2)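 Greenhouse paddy pots with 2-leaf stage plants received compound by direct addition to floodwater 3 cm deep, kept at that level. Scored visually at 13–15 d versus controls (0 no effect; 100 complete control).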

[13] = test system: barnyardgrass (Echinochloa crus-galli); test: Test B flooded paddy test; conditions: Echinochloa crus-galli, 250 g ai/ha, Flood, read-out: Barnyardgrass plant response rating
In short: as §2

[14] = test system: ducksalad (Heteranthera limosa); test: Test B flooded paddy test; conditions: Heteranthera limosa, 250 g ai/ha, Flood, read-out: Ducksalad plant response rating
In short: as §2

[15] = test system: rice (Oryra sativa); test: Test B flooded paddy test; conditions: Oryza sativa, 250 g ai/ha, Flood, read-out: Rice plant response rating
In short: as §2

[16] = visual injury rating, 0 to 100 scale where 0 is no effect and 100 is complete control, approximately 10 d
[17] = 0 to 100 scale where 0 is no effect and 100 is complete control
[18] = 125 g ai/ha, visual injury rating, 0 to 100 scale where 0 is no effect and 100 is complete control, approximately 10 d
[19] = visual injury rating about 10 d after treatment, 0 to 100 scale (0 no effect, 100 complete control)
[20] = Postemergence, visual injury after approximately 10 d, 0 to 100 scale where 0 is no effect and 100 is complete control, read-out: Plant response rating, Foxtail, Giant
[21] = Postemergence, visual injury after approximately 10 d, 0 to 100 scale where 0 is no effect and 100 is complete control, read-out: Plant response rating, Ryegrass, Italian
[22] = Postemergence, visual injury after approximately 10 d, 0 to 100 scale where 0 is no effect and 100 is complete control, read-out: Plant response rating, Pigweed
[23] = Postemergence, visual injury after approximately 10 d, 0 to 100 scale where 0 is no effect and 100 is complete control, read-out: Plant response rating, Blackgrass
[24] = scale of 0 to 100 where 0 is no effect and 100 is complete control

CN1C[C@H](c2ccc(C(F)(F)F)cc2)[C@@H](C(=O)Nc2ccccc2)C1=O [Compound 1253]
pest or weed control at 125 g/ha [1, 16]: 80%
pest or weed control at 500 g/ha [1, 17]: 80%
pest or weed control at 125 g/ha [2, 16]: 100%
pest or weed control at 500 g/ha [2, 17]: 100%
pest or weed control at 125 g/ha [3, 18]: 40%
pest or weed control at 500 g/ha [3, 17]: 60%
pest or weed control at 125 g/ha [4, 18]: 20%
pest or weed control at 500 g/ha [4, 17]: 60%
pest or weed control at 125 g/ha [5, 16]: 50%
pest or weed control at 500 g/ha [5, 17]: 80%
pest or weed control at 125 g/ha [6, 16]: 90%
pest or weed control at 500 g/ha [6, 17]: 100%
pest or weed control at 125 g/ha ([7]; postemergence, visual injury vs untreated controls after approx. 10 d, 0 = no effect, 100 = complete control, read-out: Foxtail, Giant plant response rating (0 to 100 scale)): 80%
pest or weed control at 500 g/ha ([7]; Postemergence, 500 g ai/ha, visual injury, 0 to 100 scale (0 no effect, 100 complete control), approx. 10 d, read-out: Plant response rating, Foxtail, Giant): 90%
pest or weed control at 125 g/ha ([8]; postemergence, visual injury vs untreated controls after approx. 10 d, 0 = no effect, 100 = complete control, read-out: Ryegrass, Italian plant response rating (0 to 100 scale)): 40%
pest or weed control at 500 g/ha ([8]; Postemergence, 500 g ai/ha, visual injury, 0 to 100 scale (0 no effect, 100 complete control), approx. 10 d, read-out: Plant response rating, Ryegrass, Italian): 60%
pest or weed control at 125 g/ha ([9]; postemergence, visual injury vs untreated controls after approx. 10 d, 0 = no effect, 100 = complete control, read-out: Pigweed plant response rating (0 to 100 scale)): 0%
pest or weed control at 500 g/ha ([9]; Postemergence, 500 g ai/ha, visual injury, 0 to 100 scale (0 no effect, 100 complete control), approx. 10 d, read-out: Plant response rating, Pigweed): 30%
plant injury at 500 g/ha ([10]; 500 g ai/ha, visual injury, 0 to 100 scale (0 no effect, 100 complete control), approx. 10 d): 50%
pest or weed control at 125 g/ha ([11]; postemergence, visual injury vs untreated controls after approx. 10 d, 0 = no effect, 100 = complete control, read-out: Blackgrass plant response rating (0 to 100 scale)): 30%
pest or weed control at 500 g/ha ([11]; Postemergence, 500 g ai/ha, visual injury, 0 to 100 scale (0 no effect, 100 complete control), approx. 10 d, read-out: Plant response rating, Blackgrass): 50%
pest or weed control at 250 g/ha [12, 17]: 0%
pest or weed control at 250 g/ha [13, 17]: 40%
pest or weed control at 250 g/ha [14, 17]: 100%
pest or weed control at 250 g/ha [15, 17]: 0%

CCc1ccccc1NC(=O)[C@H]1C(=O)N(C)C[C@@H]1c1ccc(C(F)(F)F)cc1 [Compound 935]
pest or weed control at 125 g/ha [1, 17]: 70%
pest or weed control at 500 g/ha [1, 19]: 80%
pest or weed control at 125 g/ha [2, 17]: 90%
pest or weed control at 500 g/ha [2, 19]: 90%
pest or weed control at 500 g/ha [3, 19]: 30%
pest or weed control at 500 g/ha [4, 19]: 50%
pest or weed control at 125 g/ha [5, 17]: 20%
pest or weed control at 500 g/ha [5, 19]: 20%
pest or weed control at 125 g/ha [6, 17]: 70%
pest or weed control at 500 g/ha [6, 19]: 90%
pest or weed control at 125 g/ha [7, 20]: 90%
pest or weed control at 125 g/ha [8, 21]: 20%
pest or weed control at 125 g/ha [9, 22]: 20%
plant injury at 125 g/ha [10]: 30%
pest or weed control at 125 g/ha [11, 23]: 60%
pest or weed control at 250 g/ha [12, 24]: 0%
pest or weed control at 250 g/ha [13, 24]: 0%
pest or weed control at 250 g/ha [14, 24]: 70%
pest or weed control at 250 g/ha [15, 24]: 0%

O=C1NC[C@H](c2cccc(C(F)(F)F)n2)[C@H]1C(=O)Nc1ccccc1F [Compound 940]
pest or weed control at 125 g/ha [1, 17]: 0%
pest or weed control at 500 g/ha [1, 19]: 0%
pest or weed control at 125 g/ha [2, 17]: 40%
pest or weed control at 500 g/ha [2, 19]: 90%
pest or weed control at 500 g/ha [3, 19]: 0%
pest or weed control at 500 g/ha [4, 19]: 0%
pest or weed control at 125 g/ha [5, 17]: 0%
pest or weed control at 500 g/ha [5, 19]: 0%
pest or weed control at 125 g/ha [6, 17]: 30%
pest or weed control at 500 g/ha [6, 19]: 70%
pest or weed control at 125 g/ha [7, 20]: 0%
pest or weed control at 125 g/ha [8, 21]: 0%
pest or weed control at 125 g/ha [9, 22]: 0%
plant injury at 125 g/ha [10]: 0%
pest or weed control at 125 g/ha [11, 23]: 0%
pest or weed control at 250 g/ha [12, 24]: 0%
pest or weed control at 250 g/ha [13, 24]: 0%
pest or weed control at 250 g/ha [14, 24]: 0%
pest or weed control at 250 g/ha [15, 24]: 0%
